Measured values taken from patent US20220235065A1 (Epizyme, Inc., priority 2016, published 2022).

Biological target: T1, recombinant purified human EHMT2 913-1193 (Homo sapiens, UniProt Q96KQ7)
T1 construct: Recombinant purified human EHMT2 913-1193 (55 μM) synthesized by Viva was used for all experiments; purchased Viva
T1 sequence (Q96KQ7 913-1193): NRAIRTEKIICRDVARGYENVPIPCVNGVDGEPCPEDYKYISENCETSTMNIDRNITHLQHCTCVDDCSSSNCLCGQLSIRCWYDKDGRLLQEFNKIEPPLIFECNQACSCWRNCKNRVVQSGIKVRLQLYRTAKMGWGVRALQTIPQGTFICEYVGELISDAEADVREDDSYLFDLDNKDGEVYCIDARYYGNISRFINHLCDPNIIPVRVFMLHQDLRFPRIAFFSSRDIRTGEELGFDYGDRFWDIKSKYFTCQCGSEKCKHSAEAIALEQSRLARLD
Experiment: EHMT2 enzyme assay on histone peptide substrate (3H-SAM Flashplate)
Assay type: biochemical
Details: read-out: EHMT2 PEP (IC50 μM)
Protocol: Recombinant purified human EHMT2 913-1193 (55 μM) synthesized by Viva was used for all experiments. Biotinylated histone peptides were synthesized by Biopeptide and HPLC-purified to >95% purity. Streptavidin Flashplates and seals were purchased from PerkinElmer and 384 Well V-bottom Polypropylene Plates were from Greiner. ^3H-labeled S-adenosylmethionine (3H-SAM) was obtained from American Radiolabeled Chemicals with a specific activity of 80 Ci/mmol. Unlabeled SAM and S-adenosylhomocysteine (SAH) were obtained from American Radiolabeled Chemicals and Sigma-Aldrich respectively. Flashplates were washed in a Biotek ELx-405 with 0.1% Tween. 384-well Flashplates and 96-well filter binding plates were read on a TopCount microplate reader (PerkinElmer). Compound serial dilutions were performed on a Freedom EVO (Tecan) and spotted into assay plates using a Thermo Scientific Matrix PlateMate (Thermo Scientific). Reagent cocktails were added by Multidrop Combi (Thermo Scientific).
General Procedure for EHMT2 Enzyme Assay on Histone Peptide Substrate.
10-point curves of test compounds were made on a Freedom EVO (Tecan) using serial 3-fold dilutions in DMSO, beginning at 2.5 mM (final top concentration of compound was 50 μM and the DMSO was 2%). A 1 μL aliquot of the inhibitor dilution series was spotted in a polypropylene 384-well V-bottom plate (Greiner) using a Thermo Scientific Matrix PlateMate (Thermo Scientific). The 100% inhibition control consisted of 1 mM final concentration of the product inhibitor S-adenosylhomocysteine (SAH, Sigma-Aldrich). Compounds were incubated for 30 minutes with 40 μL per well of 0.031 nM EHMT2 (recombinant purified human EHMT2 913-1193, Viva) in 1× assay buffer (20 mM Bicine [pH 7.5], 0.002% Tween 20, 0.005% Bovine Skin Gelatin and 1 mM TCEP). 10 μL per well of substrate mix comprising assay buffer, ^3H-SAM (3H-labeled S-adenosylmethionine, American Radiolabeled Chemicals, specific activity of 80 Ci/mmol), unlabeled SAM (American Radiolabeled Chemicals), and peptide representing histone H3 residues 1-15 containing C-terminal biotin (appended to a C-terminal amide-capped lysine, synthesized by Biopeptide and HPLC-purified to greater than 95% purity) were added to initiate the reaction (both substrates were present in the final reaction mixture at their respective Km values, an assay format referred to as “balanced conditions”). Reactions were incubated for 60 minutes at room temperature and quenched with 10 μL per well of 400 μM unlabeled SAM, then transferred to a 384-well streptavidin Flashplate (PerkinElmer) and washed in a Biotek ELx-405 well washer with 0.1% Tween after 60 minutes. 384-well Flashplates were read on a TopCount microplate reader (PerkinElmer).
IC50 curves were generated using triplicate wells per concentration of compound. The IC50 is the concentration of compound at which measured methylation is inhibited by 50% as interpolated from the dose response curves. IC50 values were calculated using a non-linear regression (variable slope-four parameter fit model) with by the following formula
where Top is fixed at 100% and Bottom is fixed to 0%, [I]=concentration of inhibitor, IC50=half maximal inhibitory concentration and n=Hill Slope.

| SMILES | IC50 [µM] |
| --- | --- |
| CNc1cc(C)nc(Nc2ccc(C)c(C(=O)Nc3cccnc3)c2)n1 [Compound 239] | > 10 |
| CNc1cc(C)nc(Nc2ccc(OC)c(-c3cnc4cc[nH]c4c3)c2)n1 [Compound 223] | < 0.1 |
| CNCc1cnn(-c2cc(Nc3nccc(NC)n3)ccc2OC)c1 [Compound 181, N2-(4-methoxy-3-(4-((methylamino)methyl)-1H-pyrazol-1-yl)phenyl)-N4-methylpyrimidine-2,4-diamine] | < 0.1 |
| CNc1cc(C)nc(Nc2ccc(OC)c(-c3cc4[nH]cc(F)c4cn3)c2)n1 [Compound 229] | 0.1 to 1 |
| COc1cc(NC2CCNCC2)ncc1-c1cc2[nH]ccc2cn1 [Compound 208] | 1 to 10 |
| CNCc1cnn(-c2cc3c(cc2OC)C2(CCC2)C(N)=N3)c1 [Compound 186] | < 0.1 |
| CNc1cc(C)nc(Nc2ccc(OC)c(-c3ccc4nc(C)[nH]c4c3)c2)n1 [Compound 155] | > 10 |
| CNc1cc(C)nc(Nc2cnc(OC)c(-c3cc4ccncc4[nH]3)c2)n1 [Compound 204] | 1 to 10 |
| CNc1cc(C)nc(Nc2ccc(OC)c(-c3cc4c(cn3)CC(=O)N4)c2)n1 [Compound 219] | 1 to 10 |
| CNc1cc(C)nc(Nc2ccc(OC)c(-c3cc4cnoc4cn3)c2)n1 [Compound 235] | > 10 |
| CNc1cc(C)nc(Nc2ccc(OC)c(-n3cc4cc(Br)ccc4n3)c2)n1 [Compound 148] | 1 to 10 |
| COc1cc(NC2CCNCC2)ccc1-c1cc(C2CC2)cnn1 [Compound 236] | > 10 |
| CNc1cc(C)nc(Nc2ccc(C)c(-c3cc4ccncc4[nH]3)c2)n1 [Compound 241] | < 0.1 |
| CNCc1cnn(-c2c(OC)ccc(Nc3nc(C)cc(NC)n3)c2OC)c1 [Compound 222] | 0.1 to 1 |
| CNC1=Nc2cc(-c3cc4ccncc4[nH]3)c(OC)cc2C12CCC2 [Compound 215] | < 0.1 |
| CCNCc1cnn(-c2cc(Nc3nccc(NC)n3)ccc2OC)c1 [Compound 185] | 0.1 to 1 |

| SMILES | IC50 [µM] |
| --- | --- |
| CNc1cc(C)nc(Nc2ccc(OC)c(-c3ccc4cc(C)[nH]c4c3)c2)n1 [Compound 156] | > 10 |
| CNc1cc(C)nc(Nc2ccc(OC)c(-c3cc(C4CC4)ncn3)c2)n1 [Compound 232] | > 10 |
| CNc1cc(C)nc(Nc2ccc(OC)c(-n3cc(C(C)(C)NC)nn3)c2)n1 [Compound 166] | > 10 |
| COc1cc2c(cc1-n1cc([C@@H]3CCCN3)nn1)N=C(N)C21CCC1 [Compound 195] | 0.1 to 1 |
| CNc1cc(C)nc(Nc2ccc(OC)c(-c3cc4[nH]ccc4nc3C)c2)n1 [Compound 228] | < 0.1 |
| CNc1cc(C)nc(Nc2ccc(OC)c(-c3cc4[nH]ccc4c(C)n3)c2)n1 [Compound 237] | < 0.1 |
| CNc1cc(C)nc(Nc2ccc(OC)c(-c3nc4n(n3)CCN(C)C4)c2)n1 [Compound 9] | > 10 |
| CNc1cc(C2CCOCC2)c2cc(OC)c(-n3cc(C4CCCN4)nn3)cc2n1 (stereo not drawn) [Compound 196] | 0.1 to 1 |
| CNc1cc(C)nc(Nc2ccc(OC)c(-c3[nH]c4cnccc4c3F)c2)n1 [Compound 199] | < 0.1 |
| CNc1cc(C)nc(Nc2ccc(OC)c(-c3cc4[nH]ccc4cn3)c2OC)n1 [Compound 220] | > 10 |
| CNCc1cnn(-c2cc3nc(NC)n(C)c3cc2OC)c1 [Compound 179] | 0.1 to 1 |
| COc1cc2c(cc1-n1cc([C@H]3CCCN3)nn1)N=C(N)C21CCC1 [Compound 193] | < 0.1 |
| CNc1cc(C)nc(Nc2cccc(C(=O)Nc3cccnc3)c2)n1 [Compound 242] | > 10 |
| CCNCc1cn(-c2cc(Nc3nccc(NC)n3)ccc2OC)nn1 [Compound 172] | 0.1 to 1 |
| CNc1cc(C)nc(Nc2ccc(OC)c(-c3cc(C4CC4)cnn3)c2)n1 [Compound 233] | 1 to 10 |

Second part, the compound after the results:

| IC50 [µM] | SMILES |
| --- | --- |
| 0.1 to 1 | CNc1cc(C)nc(Nc2ccc(OC)c(-n3cc(C(C)NC)nn3)c2)n1 (stereo not drawn) [Compound 164] |
| 1 to 10 | CNc1nc2cc(-n3cc(CN(C)C)nn3)c(OC)cc2n1C [Compound 163] |
| 1 to 10 | CNc1nc2cc(-c3cc4[nH]ccc4cn3)c(OC)cc2n1C [Compound 209] |
| 0.1 to 1 | CNc1cc(C)nc(Nc2ccc(OC)c(-n3cc4cncc(C)c4n3)c2)n1 [Compound 151] |
| > 10 | CNc1cc(C)nc(Nc2ccc(OC)c(-c3cn[nH]c3)c2)n1 [Compound 12, 2-N-[4-methoxy-3-(1H-pyrazol-4-yl)phenyl]-4-N,6-dimethylpyrimidine-2,4-diamine] |
| < 0.1 | CNC1=Nc2cc(-c3[nH]c4cnccc4c3Cl)c(OC)cc2C12CCC2 [Compound 216] |
| < 0.1 | CNc1cc(C)nc(Nc2ccc(OC)c(-c3cc4ccncc4[nH]3)c2)n1 [Compound 157, N2-(4-methoxy-3-(1H-pyrrolo[2,3-c]pyridin-2-yl)phenyl)-N4,6-dimethylpyrimidine-2,4-diamine] |
| 0.1 to 1 | CNc1cc(C)nc(Nc2ccc(OC)c(-n3cc([C@H]4CCCN4)nn3)c2)n1 [Compound 213] |
| 0.1 to 1 | CNc1cc(C)nc(Nc2ccc(OC)c(-c3cc4cnccc4n3C)c2)n1 [Compound 158] |
| < 0.1 | CNCc1cn(-c2cc(Nc3nc(C)cc(NC)n3)ccc2OC)nn1 [Compound 159, N2-(4-methoxy-3-(4-((methylamino)methyl)-1H-1,2,3-triazol-1-yl)phenyl)-N4,6-dimethylpyrimidine-2,4-diamine] |
| < 0.1 | COc1cc2c(cc1-c1cc3ccncc3[nH]1)N=C(N)C21CCC1 [Compound 202] |
| < 0.1 | CNc1cc(C)nc(Nc2ccc(OC)c(-c3[nH]c4cnccc4c3C)c2)n1 [Compound 200, N2-(4-methoxy-3-(3-methyl-1H-pyrrolo[2,3-c]pyridin-2-yl)phenyl)-N4,6-dimethylpyrimidine-2,4-diamine] |
| 1 to 10 | COc1cc(NC2CCNCC2)ccc1-c1cc2[nH]ccc2cn1 [Compound 231] |
| 0.1 to 1 | CNc1ccnc(Nc2ccc(OC)c(-n3cnc(CN(C)C)c3)c2)n1 [Compound 170] |
| 1 to 10 | CNc1cc(C)nc(Nc2ccc(OC)c(-c3cc4ncncc4[nH]3)c2)n1 [Compound 201] |
| < 0.1 | CNc1cc(C)nc(Nc2ccc(OC)c(-n3cc([C@@H]4CCCN4)nn3)c2)n1 [Compound 212, (S)—N2-(4-methoxy-3-(4-(pyrrolidin-2-yl)-1H-1,2,3-triazol-1-yl)phenyl)-N4,6-dimethylpyrimidine-2,4-diamine] |
| < 0.1 | CNC1=Nc2cc(-n3cc([C@H]4CCCN4)nn3)c(OC)cc2C12CCC2 [Compound 192] |
| < 0.1 | CNCc1cnn(-c2cc3c(cc2OC)C2(CCC2)C(NC)=N3)c1 [Compound 187] |
| > 10 | COc1cc(NC2CCNCC2)ncc1-c1cc2ccncc2[nH]1 [Compound 205] |
| 0.1 to 1 | CNc1cc(C)nc(Nc2ccc(OC)c(-n3ncc4c3CCN(C)C4)c2)n1 [Compound 10] |
| 1 to 10 | CNc1ccnc(Nc2ccc(OC)c(-n3cc(C4CC4)nn3)c2)n1 [Compound 176] |
| < 0.1 | COc1cc2c(cc1-n1cc(C3CCCN3)nn1)N=C(N)C21CCC1 (stereo not drawn) [Compound 194] |
| < 0.1 | CNc1cc(C)nc(Nc2ccc(OC)c(-c3cc4[nH]ccc4cn3)c2)n1 [Compound 206, N2-(4-methoxy-3-(1H-pyrrolo[3,2-c]pyridin-6-yl)phenyl)-N4,6-dimethylpyrimidine-2,4-diamine] |
| 0.1 to 1 | CNc1cc(-c2cc(Nc3nc(C)cc(NC)n3)ccc2OC)nc(C)n1 [Compound 230] |
| > 10 | CNc1cc(C)nc(Nc2ccc(OC)c(-n3cc4ccccc4n3)c2)n1 [Compound 146] |
| > 10 | CNc1cc(C)nc(Nc2ccc(OC)c(-c3nnc(C)[nH]3)c2)n1 [Compound 11] |
